Assay results as given in patent publication US20150353495A1 (PORTOLA PHARMACEUTICALS, INC., priority 2010, published 2015).

Legend:
[1] = tested on: JAK1/3 signaling to STAT5 in primary T cells; assay: IL2 stimulation of JAK1/3 signaling to STAT5 in primary T cells (pSTAT5 Y694, FACS); type: cell-based; settings: T-cell; for inhibition at 0.2 µM: 0.2 uM compound, read-out: IL-2/STAT5 Percent Inhibition at 0.2 uM; for inhibition at 1 µM: 1.0 μM compound, read-out: IL-2/STAT5 Percent Inhibition at 1.0 μM
Method: IL2 Stimulation of JAK1/3 Signaling to STAT5 in Primary T Cells:
The effect of JAK inhibitors on cytokine signaling pathways utilizing JAK3 was determined using an IL2 stimulation assay. IL2 engages a receptor complex that contains the IL2 receptor alpha and beta subunits, and the common gamma chain, to initiate activation of JAK1 and JAK3 leading to phosphorylation of STAT5 at tyrosine position 694. Lymphocytes are isolated from heparinized whole blood over a ficoll gradient, then resuspended in tissue culture media containing 10% fetal calf serum at 10×10̂6 cells/ml. 100 μl aliquots are pre-treated for 1 hour with various concentrations of compound, and then stimulated for 12 minutes with 100 U/ml IL2. The signaling reaction is terminated by fixing in 2% paraformaldehyde for 10 minutes at room temperature. Fixed cells are then washed and permeablized by suspension in 50% methanol (in PBS) at −80° C. Following overnight incubation at 4° C., cells are washed and resuspended in PBS containing 0.5% bovine serum albumin containing CD3-APC and pSTAT5 Y694-PE conjugated antibodies. After 1 hour incubation, cells are washed and the extent of STAT5 phosphorlyation in T cells is measured by FACS analysis.

[2] = tested on: JAK1/3 signaling to STAT6 in Ramos B cells; assay: IL4 stimulation of JAK1/3 signaling to STAT6 in Ramos B cells (pSTAT6 Y641, FACS); type: cell-based; settings: Homo sapiens; for inhibition at 0.2 µM: 0.2 uM compound, read-out: IL-4/STAT6 in Ramos Percent Inhibition at 0.2 uM; for inhibition at 1 µM: 1.0 uM compound, read-out: IL-4/STAT6 in Ramos Percent Inhibition at 1.0 uM
In short: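 Ramos cells in 10% FCS medium were pre-treated 1 h with compound, stimulated 15 min with 15 ng IL4, fixed in 2% paraformaldehyde and methanol-permeabilized. Intracellular phospho-STAT6 Y641 was stained with PE-conjugated antibody and quantified by flow cytometry.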

[3] = biological target: T1, JAK3 (Homo sapiens, UniProt P52333); assay: Z'-LYTE kinase assay JAK3; type: biochemical
T1 construct: 5 μl of catalytic domain recombinant Kinase enzyme+Tyr peptide substrate (Invitrogen, CA); purchased Invitrogen
In short: (§1)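 Catalytic-domain recombinant kinase was incubated with Tyr6 FRET peptide, ATP and compound (1% DMSO final) for 1 h at room temperature. Protease development followed for 1 h, cleaving only non-phosphorylated peptide. Inhibition of phosphorylation was read as coumarin/fluorescein FRET fluorescence.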

[4] = biological target: T2, JAK2 (Homo sapiens, UniProt O60674); assay: Z'-LYTE kinase assay JAK2; type: biochemical
T2 construct: 5 μl of catalytic domain recombinant Kinase enzyme+Tyr peptide substrate (Invitrogen, CA); purchased Invitrogen
In short: as §1

[5] = biological target: T3, JAK1 (Homo sapiens, UniProt P23458); assay: Z'-LYTE kinase assay JAK1; type: biochemical
T3 construct: 5 μl of catalytic domain recombinant Kinase enzyme+Tyr peptide substrate (Invitrogen, CA); purchased Invitrogen
In short: as §1

[6] = biological target: T4, TYK2 (Homo sapiens, UniProt P29597); assay: Z'-LYTE kinase assay TYK2; type: biochemical
T4 construct: 5 μl of catalytic domain recombinant Kinase enzyme+Tyr peptide substrate (Invitrogen, CA); purchased Invitrogen
T4 sequence (P29597 897-1176 limits assumed): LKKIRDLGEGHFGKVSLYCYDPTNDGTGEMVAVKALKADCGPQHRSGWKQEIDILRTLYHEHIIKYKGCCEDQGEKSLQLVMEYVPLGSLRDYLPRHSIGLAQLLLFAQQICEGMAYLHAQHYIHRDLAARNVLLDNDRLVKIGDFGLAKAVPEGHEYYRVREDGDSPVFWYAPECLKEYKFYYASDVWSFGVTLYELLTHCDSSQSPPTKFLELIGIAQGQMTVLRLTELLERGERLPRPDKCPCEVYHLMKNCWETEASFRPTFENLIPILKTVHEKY
In short: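 Recombinant catalytic-domain TYK2 with Tyr6 peptide in Z′-LYTE FRET format, 1% DMSO final, kinase reaction 1 h at room temperature, then protease development 1 h. Fluorescence read at 445/520 nm (excitation 400 nm), percent phosphorylation vs no-inhibitor control, IC50 from 4-parameter logistic fit.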

T1 sequence (P52333 822-1111 limits assumed): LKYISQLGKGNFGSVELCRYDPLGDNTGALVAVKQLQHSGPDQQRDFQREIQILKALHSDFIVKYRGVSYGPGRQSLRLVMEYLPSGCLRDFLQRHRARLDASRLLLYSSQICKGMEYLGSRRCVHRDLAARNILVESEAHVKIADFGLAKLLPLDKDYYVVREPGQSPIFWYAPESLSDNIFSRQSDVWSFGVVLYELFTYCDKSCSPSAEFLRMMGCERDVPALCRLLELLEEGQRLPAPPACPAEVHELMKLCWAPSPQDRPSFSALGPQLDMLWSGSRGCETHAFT
T3 sequence (P23458 875-1153 limits assumed): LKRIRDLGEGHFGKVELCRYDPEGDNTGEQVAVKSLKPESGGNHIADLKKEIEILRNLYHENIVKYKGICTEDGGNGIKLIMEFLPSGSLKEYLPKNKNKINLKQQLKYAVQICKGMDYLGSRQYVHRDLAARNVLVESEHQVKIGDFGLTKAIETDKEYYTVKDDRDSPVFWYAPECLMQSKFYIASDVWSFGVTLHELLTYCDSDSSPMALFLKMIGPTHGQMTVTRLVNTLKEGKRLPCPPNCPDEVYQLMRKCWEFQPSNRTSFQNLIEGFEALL
T2 sequence (O60674 849-1124 limits assumed): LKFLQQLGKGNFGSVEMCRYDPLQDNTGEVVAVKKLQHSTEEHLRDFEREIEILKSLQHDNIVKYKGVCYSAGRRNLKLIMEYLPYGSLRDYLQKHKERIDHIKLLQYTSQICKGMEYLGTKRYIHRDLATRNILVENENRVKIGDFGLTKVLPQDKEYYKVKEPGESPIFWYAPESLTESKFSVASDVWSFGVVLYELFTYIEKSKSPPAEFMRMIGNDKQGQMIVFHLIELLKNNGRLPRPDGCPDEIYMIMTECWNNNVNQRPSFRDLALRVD

Structure (SMILES)	IC50 [3] [nM]	IC50 [4] [nM]	IC50 [5] [nM]	IC50 [6] [nM]	inhibition at 0.2 µM [1] [%]	inhibition at 1 µM [1] [%]	inhibition at 0.2 µM [2] [%]	inhibition at 1 µM [2] [%]
CCC(=O)N1CCC(c2ccc(Nc3cc(NCc4ccccc4F)c(C(N)=O)cn3)cc2)CC1 [Example 79]	10 to 100	100 to 1000	100 to 1000	100 to 1000	53	73	20	43
NC(=O)c1cnc(Nc2cccc(C(=O)N3CCCCC3)c2)cc1NCc1ccccc1 [Example 249, 4-(benzylamino)-6-(3-(piperidine-1-carbonyl)phenylamino)nicotinamide]	10 to 100	100 to 1000	100 to 1000	> 1000	12	29	23	32
NC(=O)c1cnc(Nc2ccc(C(=O)N3CCCC3)cc2)cc1NCc1ccccc1 [Example 39, 4-(benzylamino)-6-(4-(pyrrolidine-1-carbonyl)phenylamino)nicotinamide]	1 to 10	100 to 1000	100 to 1000	100 to 1000	37	65	47	52
CC(=O)N1CCN(c2ccc(Nc3cc(NCc4cccc(F)c4F)c(C(N)=O)cn3)cc2)CC1 [Example 256, 6-(4-(4-acetylpiperazin-1-yl)phenylamino)-4-(2,3-difluorobenzylamino)nicotinamide]	1 to 10	10 to 100	100 to 1000	100 to 1000	69	100	37	64
NC(=O)c1cnc(Nc2ccc(C3CCNCC3)cc2)cc1NCc1cccc(F)c1F [Example 209, 4-(2,3-difluorobenzylamino)-6-(4-(piperidin-4-yl)phenylamino)nicotinamide]	1 to 10	10 to 100	100 to 1000	100 to 1000	70	99		
CS(=O)(=O)c1ccc(Nc2cc(NCc3cccc4[nH]ccc34)c(C(N)=O)cn2)cc1 [Example 320, 4-((1H-indol-4-yl)methylamino)-6-(4-(methylsulfonyl)phenylamino)nicotinamide]	1 to 10	10 to 100	10 to 100	10 to 100	90	108		
NC(=O)c1cnc(Nc2ccc(OC(F)(F)F)cc2)cc1NCc1cccc2[nH]ccc12 [Example 322, 4-((1H-indol-4-yl)methylamino)-6-(4-(trifluoromethoxy)phenylamino)nicotinamide]	100 to 1000	> 1000	> 1000	> 1000	27	70		
NC(=O)c1cnc(Nc2ccc(N3CCOCC3)cc2)cc1NCc1ccccc1 [Example 250, 4-(benzylamino)-6-(4-morpholinophenylamino)nicotinamide]	1 to 10	100 to 1000	> 1000	> 1000	18	50	11	26

The next lines start with results.

IC50 [3] [nM]	IC50 [4] [nM]	IC50 [5] [nM]	IC50 [6] [nM]	Structure (SMILES)	inhibition at 0.2 µM [1] [%]	inhibition at 1 µM [1] [%]	inhibition at 0.2 µM [2] [%]	inhibition at 1 µM [2] [%]
1 to 10	100 to 1000	> 1000	> 1000	NC(=O)c1cnc(Nc2cccc(OCCN3CCCC3)c2)cc1N[C@H](CO)c1ccccc1 [Example 59, (S)-4-(2-hydroxy-1-phenylethylamino)-6-(3-(2-(pyrrolidin-1-yl)ethoxy)phenylamino)nicotinamide]	12	50	11	27
1 to 10	100 to 1000	100 to 1000	> 1000	NC(=O)c1cnc(Nc2ccc(OCCN3CCOCC3)cc2)cc1NCc1ccccc1 [Example 429, 4-(benzylamino)-6-(4-(2-morpholinoethoxyl)phenylamino)nicotinamide]	60	77	19	33
1 to 10	10 to 100	100 to 1000	100 to 1000	NC(=O)c1cnc(Nc2ccc(C3CCN(C(=O)C4CCOCC4)CC3)cc2)cc1NCc1ccccc1F [Example 119, 4-(2-fluorobenzylamino)-6-(4-(1-(tetrahydro-2H-pyran-4-carbonyl)piperidin-4-yl)phenylamino)nicotinamide]	54	83	17	47
1 to 10	100 to 1000	100 to 1000	100 to 1000	CN1CCC(c2ccc(Nc3cc(NCc4ccccc4F)c(C(N)=O)cn3)cc2)CC1 [Example 107, 4-(2-fluorobenzylamino)-6-(4-(1-methylpiperidin-4-yl)phenylamino)nicotinamide]	58	82	43	73
1 to 10	10 to 100	100 to 1000	100 to 1000	NC(=O)c1cnc(Nc2ccc(N3CCOCC3)cc2)cc1NCc1cccc(F)c1 [Example 67, 4-(3-fluorobenzylamino)-6-(4-morpholinophenylamino)nicotinamide]	61	89	48	69
1 to 10	100 to 1000	> 1000	> 1000	NC(=O)c1cnc(Nc2ccc(OCCN3CCCC3)cc2)cc1NCc1ccccc1 [Example 428, 4-(benzylamino)-6-(4-(2-(pyrrolidin-1-yl)ethoxy)phenylamino)nicotinamide]	56	84	33	46
1 to 10	10 to 100	100 to 1000	100 to 1000	Cc1cc(Nc2cc(NCc3cccc(F)c3)c(C(N)=O)cn2)ccc1N1CCCC1=O [Example 61, 4-(3-fluorobenzylamino)-6-(3-methyl-4-(2-oxopyrrolidin-1-yl)phenylamino)nicotinamide]	39	67	40	60
1 to 10	100 to 1000	100 to 1000	> 1000	CC(=O)N1CCN(c2ccc(Nc3cc(N[C@H](C)c4ccccc4)c(C(N)=O)cn3)cc2)CC1 [Example 7, (R)-6-(4-(4-acetylpiperazin-1-yl)phenylamino)-4-(1-phenylethylamino)nicotinamide]	29	74	10	40
1 to 10	10 to 100	10 to 100	10 to 100	NC(=O)c1cnc(Nc2ccc(C(=O)N3CCC3)cc2)cc1NCc1c(F)cccc1F [Example 105, 6-(4-(azetidine-1-carbonyl)phenylamino)-4-(2,6-difluorobenzylamino)nicotinamide]	72	99	53	88
< 1	10 to 100	100 to 1000	100 to 1000	Cc1cc(Nc2cc(NCc3cccc4ccsc34)c(C(N)=O)cn2)ccc1C(=O)N1CCC1 [Example 457, 6-(4-(azetidine-1-carbonyl)-3-methylphenylamino)-4-(benzo[b]thiophen-7-ylmethylamino)nicotinamide]	56	100		
